Measurements taken from paper PMC4366261, “Characterization of the Intestinal Absorption of Seven Flavonoids from the Flowers of Trollius chinensis Using the Caco-2 Cell Monolayer Model” (PLoS ONE, 2015).
In brackets after ≈: the same amount, converted by molar mass.

Tests used:
[1] = molecular target: T1, P-glycoprotein (P-gp) (Homo sapiens, UniProt P08183); assay: Transporter inhibition experiment with verapamil hydrochloride (P-gp) in Caco-2 monolayer; assay type: in vitro ADME; conditions: 50 μmol/L compound, 100 μmol/L verapamil hydrochloride, AP to BL; for Effect of verapamil hydrochloride on the transport: 180 min
T1 construct: endogenous in cells; host or cells: Caco-2 cells
T1 sequence (P08183 whole entry): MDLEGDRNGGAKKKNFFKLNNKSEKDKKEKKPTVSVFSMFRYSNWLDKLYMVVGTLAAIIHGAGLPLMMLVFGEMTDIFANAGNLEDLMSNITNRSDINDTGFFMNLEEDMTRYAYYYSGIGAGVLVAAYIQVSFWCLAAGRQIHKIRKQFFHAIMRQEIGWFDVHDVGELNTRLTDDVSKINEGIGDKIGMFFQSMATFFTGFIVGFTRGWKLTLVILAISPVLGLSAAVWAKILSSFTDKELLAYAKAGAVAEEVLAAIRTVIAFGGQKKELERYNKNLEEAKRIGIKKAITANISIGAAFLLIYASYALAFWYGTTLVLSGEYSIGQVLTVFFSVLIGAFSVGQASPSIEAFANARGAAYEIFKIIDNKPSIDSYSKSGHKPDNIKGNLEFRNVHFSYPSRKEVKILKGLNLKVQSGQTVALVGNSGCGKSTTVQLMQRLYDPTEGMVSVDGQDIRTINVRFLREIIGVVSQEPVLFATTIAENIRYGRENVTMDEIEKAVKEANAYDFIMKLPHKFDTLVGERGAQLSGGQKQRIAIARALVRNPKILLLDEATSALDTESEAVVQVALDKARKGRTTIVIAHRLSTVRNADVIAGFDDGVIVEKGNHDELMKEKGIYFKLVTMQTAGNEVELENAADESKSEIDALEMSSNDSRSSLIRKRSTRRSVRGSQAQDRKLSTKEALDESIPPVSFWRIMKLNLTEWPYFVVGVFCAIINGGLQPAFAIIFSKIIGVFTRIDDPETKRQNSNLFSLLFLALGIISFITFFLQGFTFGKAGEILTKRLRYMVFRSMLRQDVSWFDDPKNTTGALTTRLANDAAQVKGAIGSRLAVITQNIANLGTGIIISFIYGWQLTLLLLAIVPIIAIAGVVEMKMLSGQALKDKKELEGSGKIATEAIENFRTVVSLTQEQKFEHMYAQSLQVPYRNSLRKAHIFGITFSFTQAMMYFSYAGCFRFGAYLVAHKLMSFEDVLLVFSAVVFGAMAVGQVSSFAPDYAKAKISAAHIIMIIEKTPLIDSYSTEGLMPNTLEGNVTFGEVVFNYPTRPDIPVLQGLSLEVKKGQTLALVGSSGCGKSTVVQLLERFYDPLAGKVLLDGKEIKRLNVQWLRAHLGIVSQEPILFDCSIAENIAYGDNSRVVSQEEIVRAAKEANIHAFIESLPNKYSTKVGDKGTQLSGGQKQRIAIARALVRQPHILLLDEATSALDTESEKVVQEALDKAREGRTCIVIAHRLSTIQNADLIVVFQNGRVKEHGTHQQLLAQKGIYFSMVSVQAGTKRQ
Procedure: (§1) On day 21, transport study was initiated by carefully removing the culture medium from both AP and BL sides. The Caco-2 monolayers were rinsed twice with pre-warmed HBSS and were incubated with the same solution at 37°C for 30 min. […] The final concentration of DMSO in these solutions was less than 1%. […] Incubation was performed at 37°C for 180 min, with shaking at 50 rpm. […] The samples were frozen immediately and stored below-20°C before analysis.

[2] = Transport experiment across Caco-2 cell monolayer (Papp); assay type: in vitro ADME, human; conditions: human, 50 μmol/L, 90 min
Procedure: (§2) For cells differentiation to form a confluent monolayer, Caco-2 cells were seeded into the inserts of the 12-well Transwell plates at the density of 1.0×10^5 cells/cm^2. The culture medium was replaced on every other day in the first week, and then at daily intervals for the apical (AP) side and 2 days intervals for the basal (BL) side until the transport experiment was performed 21 days after seeding. The AP and BL sides contained 0.5 and 1.5 mL of culture medium, respectively. […] The cell inserts were considered as qualified only if the resistance reached above 600 Ω cm^2.
(§3) On day 21, the transport experiment was initiated by removal of the culture medium from AP and BL sides. The Caco-2 monolayers were rinsed twice with pre-warmed Hanks balanced salt solution (HBSS) and were incubated with the same solution at 37°C for 30 min. The seven individual test compounds and an equimolar mixture of them were pre-dissolved in DMSO, and then diluted to 25, 50, and 100 μmol/L with an appropriate volume of HBSS to allow the final concentration of DMSO to be less than 1%. The test compounds were added to the AP (0.5 mL) or BL side (1.5 mL), while the receiving chamber contained the corresponding volume of HBSS. Incubation was performed at 37°C for 180 min, with shaking at 50 rpm. At 30, 60, 90, 120, 150, and 180 min, each 0.2 mL of the solution from BL or AP side was collected, and replaced with an equal volume of HBSS. The samples were frozen immediately and stored below-20°C before analysis.
(§4) The apparent permeability coefficients (Papp) were determined in this study by HPLC quantification of the compounds in the receiver chamber after transport across the Caco-2 monolayer. The calculation was carried out in accordance with the formula Papp = (dQ/dt)×(1/A)×(1/C0), wherein dQ/dt was the rate of appearance of the test compound in the receiver compartment (μmol/s); C0 was the initial concentration of test compound in the donor compartment (μmol/mL); and A was the surface area of the Caco-2 monolayer (cm^2). The percentage transported (%) was calculated using the formula % transported = QB/(CS×VD)×100, wherein QB was the quantity of compound in the receiver compartment (μmol); CS was the concentration of test compound in the donor compartment (μmol/mL); VD was the liquid volume of the donor compartment (mL). The transport rate (μmol/h/cm^2) was calculated using the formula transport rate = QB/(t×A), wherein QB was the quantity of compound in the receiver compartment (μmol); t was the incubation time (h); A was the surface area of the Caco-2 monolayer (cm^2).

[3] = test system: Caco-2 cell monolayer; assay: as above; assay type: in vitro ADME, human; conditions: for Absorption mechanism: from P ratio, time course and concentration course; for P ratio Papp AP→BL/Papp BL→AP: 50 μmol/L, 90 min
Procedure: as §2, §3, §4

[4] = molecular target: T2, multidrug resistance protein 2 (MRP2) (Homo sapiens, UniProt Q92887); assay: Transporter inhibition experiment with probenecid (MRP2) in Caco-2 monolayer; assay type: in vitro ADME; conditions: 50 μmol/L compound, 600 μmol/L probenecid, AP to BL
T2 construct: endogenous in cells; host or cells: Caco-2 cells
T2 sequence (Q92887 whole entry): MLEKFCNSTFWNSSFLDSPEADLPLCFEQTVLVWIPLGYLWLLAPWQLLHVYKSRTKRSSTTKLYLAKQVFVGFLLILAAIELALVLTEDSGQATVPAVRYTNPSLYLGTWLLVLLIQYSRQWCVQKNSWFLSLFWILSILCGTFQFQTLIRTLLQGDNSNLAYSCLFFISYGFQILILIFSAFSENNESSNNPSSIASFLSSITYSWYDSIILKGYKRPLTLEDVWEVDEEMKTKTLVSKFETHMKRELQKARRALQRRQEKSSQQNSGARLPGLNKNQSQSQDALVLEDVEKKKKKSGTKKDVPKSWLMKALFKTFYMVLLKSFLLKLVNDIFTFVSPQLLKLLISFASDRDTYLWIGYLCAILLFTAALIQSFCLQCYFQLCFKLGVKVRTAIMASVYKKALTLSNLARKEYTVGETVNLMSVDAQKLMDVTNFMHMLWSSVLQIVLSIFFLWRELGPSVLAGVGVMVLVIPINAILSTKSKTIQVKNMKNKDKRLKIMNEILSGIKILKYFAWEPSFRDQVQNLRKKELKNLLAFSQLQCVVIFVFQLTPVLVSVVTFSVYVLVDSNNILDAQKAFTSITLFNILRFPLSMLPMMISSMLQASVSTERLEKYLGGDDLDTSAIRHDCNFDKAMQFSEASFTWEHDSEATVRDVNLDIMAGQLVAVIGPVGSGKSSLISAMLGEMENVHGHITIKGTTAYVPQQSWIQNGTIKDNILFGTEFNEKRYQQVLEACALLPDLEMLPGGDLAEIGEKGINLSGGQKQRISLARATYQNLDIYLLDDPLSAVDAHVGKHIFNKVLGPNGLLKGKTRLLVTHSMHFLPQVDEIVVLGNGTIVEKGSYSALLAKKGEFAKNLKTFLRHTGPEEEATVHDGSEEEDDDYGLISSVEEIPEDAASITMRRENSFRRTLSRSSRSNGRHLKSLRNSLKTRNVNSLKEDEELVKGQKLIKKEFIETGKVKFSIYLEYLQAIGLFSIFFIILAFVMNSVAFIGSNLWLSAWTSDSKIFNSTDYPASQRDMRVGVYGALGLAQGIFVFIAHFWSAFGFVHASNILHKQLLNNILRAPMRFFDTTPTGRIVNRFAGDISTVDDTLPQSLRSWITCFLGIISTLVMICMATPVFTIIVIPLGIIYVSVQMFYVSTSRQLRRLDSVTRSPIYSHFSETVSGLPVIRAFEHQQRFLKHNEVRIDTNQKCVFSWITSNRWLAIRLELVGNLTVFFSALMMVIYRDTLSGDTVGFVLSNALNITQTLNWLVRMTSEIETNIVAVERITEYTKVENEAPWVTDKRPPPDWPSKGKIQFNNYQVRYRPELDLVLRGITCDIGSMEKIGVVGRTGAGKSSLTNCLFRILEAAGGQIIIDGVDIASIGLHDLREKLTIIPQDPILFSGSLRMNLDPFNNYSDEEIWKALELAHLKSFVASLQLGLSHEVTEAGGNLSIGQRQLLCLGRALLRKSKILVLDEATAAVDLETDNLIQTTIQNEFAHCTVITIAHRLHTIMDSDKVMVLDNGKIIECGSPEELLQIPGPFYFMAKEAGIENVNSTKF
Procedure: as §1

[5] = test system: Caco-2 cells; assay: MTT assay, survival rate of Caco-2 cells; assay type: cell-based, human; conditions: 4 h
Description: The human colon adenocarcinoma cell line Caco-2 (No. 3111C0001CCC000100, passage 32) was obtained from the Cell Resource Center, Peking Union Medical College (the headquarters of National Infrastructure of Cell Line Resource, NSTI) on May 3rd, 2013. The cell line was checked free of mycoplasma contamination by PCR and culture, its species origin was confirmed with PCR, and its identity was authenticated with STR profiling (FBI, CODIS). All results of the above tests can be viewed on the website (http://cellresource.cn). The cells were cultured in 25 cm^2 flasks in DMEM medium supplemented with 10% (v/v) FBS, 1% (v/v) NEAA, and 1% (v/v) penicillin-streptomycin, in an atmosphere of 5% CO2 at 37°C and constant moisture. The culture medium was replaced every 2 to 3 days, and the cells were split 1:2 or 1:3 as 80% confluence was obtained.
Caco-2 cells at logarithmic growth phase were seeded into 96-well plates and incubated at 37°C in an atmosphere of 5% CO2 and constant moisture in the incubator. After the cells reached confluence, they were cultured in quadruplicate with 100 μL of HBSS solution (negative control) and compound-containing HBSS solution (seven flavonoids or paclitaxel (positive control) at the concentrations of 25, 50, and 100 μmol/L, respectively) for 4 h. Then, HBSS solution was replaced by 100 μL of MTT solution (0.5 mg/mL), and the supernatant was discarded after 4 h of incubation at 37°C. The cells were shaken with 150 μL of DMSO for 10 min, and the absorbance was read on the microplate reader at 570 nm. The survival rate %=A¯/A0¯×100 , wherein A¯ was the average absorbance value of treatment or positive control group, and A0¯ was the average absorbance value of negative control group.

[6] = Stability of sample solutions at room temperature by HPLC; assay type: physicochemical; conditions: sample solution at room temperature, HPLC at 0, 1, 2, 4, 6, 12 and 24 h
Procedure: The intra-day precision was determined by investigating the analytes in sextuplicates during a single day, and the inter-day precision was determined by conducting the intra-day experiment on two consecutive days. […] Each one sample solution of the seven flavonoids was kept at room temperature, and then their stabilities were determined by injecting them into apparatus at 0, 1, 2, 4, 6, 12, and 24 h.

[7] = test system: Staphylococcus aureus; parameters: method as in earlier work; conditions: cited from earlier work
[8] = test system: parainfluenza virus type 3 (Para 3); parameters: method as in PMID 11849843; conditions: cited from earlier work
[9] = test system: S. epidermidis; parameters: method as in earlier work; conditions: cited from earlier work
[10] = test system: murine ear edema model; conditions: cited from earlier work
[11] = Caco-2, in the equimolar mixture of the seven flavonoids
[12] = in the equimolar mixture of the seven flavonoids

Structure (SMILES)	Substrate of P-gp [1]	Effect of verapamil hydrochloride on the transport [1]	Papp A→B at 90 min, 50 μmol/L [2, 11]	Papp B→A at 90 min, 50 μmol/L [2, 11]	Papp A→B at 90 min, 50 μmol/L ([2]; Caco-2, individual compound)	Papp B→A at 90 min, 50 μmol/L ([2]; Caco-2, individual compound)	Absorption mechanism [3]	P ratio Papp AP→BL/Papp BL→AP [3, 12]	P ratio Papp AP→BL/Papp BL→AP ([3]; individual compound)	Substrate of MRP2 [4]	Effect of probenecid on the transport ([4]; 180 min)	Survival rates (%) ([5]; 25 μmol/L)	Survival rates (%) ([5]; 50 μmol/L)	Survival rates (%) ([5]; 100 μmol/L)	RSD% values for 24-hour stability [6]	MIC toward S. aureus [7]	IC50 against parainfluenza virus type 3 [8]	MIC toward S. epidermidis [9]	Anti-inflammatory effect against murine ear edema [10]
O=c1cc(-c2ccc(O)c(O)c2)oc2c([C@@H]3O[C@H](CO)[C@@H](O)[C@H](O)[C@H]3O[C@@H]3O[C@H](CO)[C@H](O)[C@H](O)[C@H]3O)c(O)cc(O)c12 [2”-O-β-L-galactopyranosylorientin, 8-((2S,3R,4S,5S,6R)-4,5-dihydroxy-6-(hydroxymethyl)-3-(((2S,3R,4S,5R,6R)-3,4,5-trihydroxy-6-(hydroxymethyl)tetrahydro-2H-pyran-2-yl)oxy)tetrahydro-2H-pyran-2-yl)-2-(3,4-dihydroxyphenyl)-5,7-dihydroxy-4H-chromen-4-one]	nonsubstrates of P-gp	had no effect	1.31 ± 0.38 ×10⁻⁶ cm/s	0.69 ± 0.26 ×10⁻⁶ cm/s	1.84 ± 0.01 ×10⁻⁶ cm/s	4.58 ± 0.18 ×10⁻⁶ cm/s	transporter mediated efflux in addition to passive diffusion	1.90	0.40	substrate of MRP2	significantly promoted	111.0±9.1%	104.7±2.7%	102.7±7.7%	2.86%	–	–	–	–
O=c1cc(-c2ccc(O)cc2)oc2c([C@@H]3O[C@H](CO)[C@@H](O)[C@H](O)[C@H]3O)c(O)cc(O)c12 [Vitexin, 5,7-dihydroxy-2-(4-hydroxyphenyl)-8-((2S,3R,4R,5S,6R)-3,4,5-trihydroxy-6-(hydroxymethyl)tetrahydro-2H-pyran-2-yl)-4H-chromen-4-one]	substrates of P-gp	increased	1.6 ± 0.18 ×10⁻⁶ cm/s	1.03 ± 0.28 ×10⁻⁶ cm/s	2.26 ± 0.37 ×10⁻⁶ cm/s	3.38 ± 0.54 ×10⁻⁶ cm/s	transporter mediated efflux in addition to passive diffusion	1.55	0.67	–	–	104.5±10.5%	101.3±2.3%	98.2±8.9%	2.42%	100 µg/mL (≈ 231 µM)	20.8 µg/mL (≈ 48.1 µM)	25 µg/mL (≈ 57.8 µM)	possess anti-inflammatory effects
